Test results: US8163803B2 (Fundação Oswaldo Cruz—FIOCRUZ, priority 2004, dated 2012)

Experiments:
[1] = system: Na^+ currents in GH3 cells; assay: Tonic block of Na+ currents in GH3 cells, whole cell patch clamp; assay type: cell-based, Rat; conditions: for IC50: GH3 cells, holding potential −80 mV to +60 mV step pulse, read-out: IC50, blockade of Na+ currents
Protocol: Ion channel currents were recorded by means of a patch clamp technique. The cells cultured on the cover glass were placed in a chamber fixed to a microscope stage and continuously perfused with extracellular Saline (A) solution (in mM); 150 NaCl, 5 KCl, 1 MgCl2, 0.01 CaCl2, 1 EGTA, 10 HEPES, 2 BaCl2, 0.1 CdCl2, pH 7.4 at room temperature (22-25° C.) adjusted with NaOH. The cells were observed using phase contrast mode under an inverted microscope (Axiovert 100, Carl Zeiss, Oberkochem, D Germany). Tight-seal (>10 GΩ) whole cell voltage-clamp recordings were performed with an Axopatch-1D amplifier (Axon Instruments, San Mateo, Calif.). […] Fifteen minutes after rupture of the patch membrane, we started to record ion channel currents. Pulse protocols and data acquisition were controlled by Digidata 1320 interface (Axon Instruments, Palo Alto, Calif.), and acquired on a personal computer using Clampex 9 software. The Na^+ current recordings were filtered at 1 kHz and sampled at 8 kHz. About 26% of series resistance was electronically compensated. Drugs were applied to the recording chamber by gravity. Perfusion rate was maintained at 0.8-1.1 ml/min and bath volume was of 50 μl. […] Voltage-gated Na^+ currents were recorded from these cells in the presence or absence of treatment.

[2] = system: patients; conditions: long-term treatment, nebulized; cited from earlier work

Structure (SMILES) | IC50 [1] [µM] | 50% inhibitory concentration, times higher than lidocaine ([1]; ratio to lidocaine IC50) [times] | patients with relief of asthma symptoms and diminished dependency on steroidal anti-inflammatory treatment [2]
CCN(CC)CC(=O)Nc1ccc(C)cc1C [JM24-1, 2-dyethylamine-2′,4′-acetoxylidide] | 5200 | 29 | 
CCN(CC)CC(=O)Nc1c(C)cccc1C [Lidocaine, 1-(2-(dyethylamine)N-dymethylfenyl)-acetamide, reference compound] | 180 |  | 20 out of 24
